Measurements as given in patent publication US20090060984A1, “ANIONIC SURFACTANTS LETHAL TO GRAM-POSITIVE BACTERIA” (priority 2007, published 2009).
Values joined by “and” are separate entries in the source; they are usually repeats but may differ in a detail not shown here. Identical values can stand only once. Like-named read-outs stand apart in the source and are kept apart here.

Columns and labels:
Serratia marcescens = assay: Growth on surfactant/TSA agar plates; type: cell-based; conditions: the one Gram-negative not resistant
Experimental: This solution was then aliquoted into sterile petri dishes, approximately 25 mL per plate, and allowed to solidify. The organisms were grown in 5 mL of Trypticase Soy Broth. The sterile broth was inoculated with a single isolated colony from a stock culture and allowed to incubate in a shaking water bath at 37° C. for 8-10 hours. The estimated concentration was about 10^9 CFU/mL. Some plates were tested with a 1:100 dilution of these cultures to arrive at an approximate concentration of 10^7 CFU/mL. Then, 10 μL of each overnight culture was pipetted directly onto the surface of the surfactant/TSA plates, which were then allowed to incubate at 37° C. for 24 hours. Results were based on the presence or absence of bacterial growth on the surface of the agar.

B. subtilis = assay: Sodium surfactant polyurethane coated microscope slides, surviving bacteria; conditions: for CFU/mL B. subtilis: 30% sodium surfactant polyurethane coated microscope slides, two data sets
S. aureus [1] = assay: as above; conditions: for CFU/mL S. aureus: 30% sodium surfactant polyurethane coated microscope slides, two data sets
E. coli = type: cell-based, Escherichia coli; conditions: 24 h contact time
Experimental: Escherichia coli ATCC 11229 (Culti-loops, Remel Europe, Dartford, Kent, UK) and Pseudomonas aeruginosa ATCC 15442 (Cuti-loops, Remel Europe, Dartford, Kent, UK) were selected as model Gram-negative organisms for the challenge testing of the antimicrobial coatings. Each bacterial strain was streaked for isolated colonies on Tryptic Soy Agar (TSA) plates (Difco, Becton Dickinson, Sparks, Md., U.S.A.) and incubated at 37° C. for 12 to 18 hours. Broth cultures were prepared by first picking 1-2 isolated colonies from TSA plates and inoculating 5 mL Tryptic Soy Broth (TSB; Difco, Becton Dickinson, Sparks, Md., U.S.A.) in a 16 mm test tube. This culture was grown in a shaking water bath at 150 RPM for 8 hours at 37° C. After the eight hours, 125 μL of this culture was added to 50 mL of TSB in a side-arm Klett flask and grown for approximately 8 hours in shaking water bath (150 RPM) at 37° C. The bacterial broths were grown to an A590 of 1.2-1.5, which correlated to approximately 10^9 CFU (colony forming units)/mL. 25 mL of this broth were transferred to a sterile 30 mL Oakridge tube and centrifuged at 12,000×g for 10 minutes at 4° C. (Sorval SS34 rotor) to pelletize the bacteria. The bacterial pellet was washed once and resuspended in 25 mL of phosphate buffer solution (PBS; BBL, FTA Hemaglutination Buffer, Becton Dickinson, Sparks, Md., U.S.A.). The suspension was diluted with PBS to achieve the target range of 10^5-10^6 CFU/mL and used to inoculate the slides containing antibacterial coatings.
Xylene/methanol (5:1 by weight) is used to dissolve the silver surfactants to facilitate homogeneously mixing with the alkyd resin composition.
A minus sign (−) denotes no growth, a plus sign (+) denotes confluent growth, and a capital P (P) denotes […].
Xylene/methanol (5:1 by weight) is used to dissolve the silver surfactants to facilitate homogeneously mixing with the acrylic resin composition.
The same laboratory experimental solvent based acrylic paint described in Example 34 is used to challenge E. coli by adding various levels of the invention silver anionic surfactants as described in Example 34.
A commercially available 2K epoxy resin paint is obtained from a local paint store (Sherwin Williams High Solids Epoxy Tile Clad HS; Part A B62WC11; Part B B60VZ75, The Sherwin Williams Company) and the same silver anionic surfactants described in Example 35 are used to prepare test coatings on microscope slides containing various levels of silver ion. These surfactants are dissolved in xylene/methanol (5:1 by weight) to facilitate their quantitative addition to the coating mixture.

S. aureus [2] = type: cell-based, Staphylococcus aureus; conditions: laboratory acrylic clearcoat, 24 h contact time
From the text: A laboratory experimental solvent based acrylic paint is formulated and then used to challenge S. aureus by adding various levels of the invention silver anionic surfactants as described in Example 33. A binder is made by solution polymerization of butyl acrylate (25% w/w), methylmethacrylate (73.5% w/w), and methacrylic acid (1.5% w/w) in amylacetate using thermal initiation. This solution polymer is then used to make a 60% solids clearcoat binder in xylene/methanol (5:1 by weight). The silver anionic surfactants are dissolved in this same xylene/methanol mixture prior to addition to the clearcoat.

[3] = after 12 and 24 hours of exposure, polyurethane coated slides

CCCCC(CC)COC(=O)CC(C(=O)OCC(CC)CCCC)S(=O)(=O)[O-].[Na+] (stereo not shown) [NaAOT, Sodium bis(2-ethylhexyl)sulfosuccinate]
killed all: Killing of B. subtilis (B. subtilis; [3]) | Killing of S. aureus (S. aureus [1]; [3])
0 CFU/mL: CFU/mL B. subtilis (B. subtilis; exposure 12 hours) | CFU/mL B. subtilis (B. subtilis; exposure 24 hours) | CFU/mL S. aureus (S. aureus [1]; exposure 12 hours) | CFU/mL S. aureus (S. aureus [1]; exposure 24 hours)
except for Serratia marcescens: Effect on Serratia marcescens (Serratia marcescens)

silver linearalkanebenzene sulfonate [AgLABS]
0.012 % Ag w/w and 0.006 % Ag w/w: Silver level with partial growth (S. aureus [2])
0.03 % Ag w/w: Silver level partially effective (E. coli; commercial solvent borne acrylic paint)
−: E. coli growth on coating (E. coli; alkyd resin paint, 0.03 weight % Ag in coating) | E. coli growth on coating (E. coli; alkyd resin paint, 0.06 weight % Ag in coating) | E. coli growth on coating (E. coli; alkyd resin paint, 0.12 weight % Ag in coating) | E. coli growth on coating (E. coli; commercial 2K epoxy paint, 0.03 weight % Ag in coating) | E. coli growth on coating (E. coli; commercial 2K epoxy paint, 0.06 weight % Ag in coating) | E. coli growth on coating (E. coli; commercial 2K epoxy paint, 0.12 weight % Ag in coating) | E. coli growth on coating (E. coli; commercial solvent borne acrylate paint, 0.06 weight % Ag in coating) | E. coli growth on coating (E. coli; commercial solvent borne acrylate paint, 0.12 weight % Ag in coating) | E. coli growth on coating (E. coli; laboratory solvent borne acrylate paint, 0.06 weight % Ag in coating) | E. coli growth on coating (E. coli; laboratory solvent borne acrylate paint, 0.12 weight % Ag in coating)
+: E. coli growth on coating (E. coli; alkyd resin paint, 0.0012 weight % Ag in coating) | E. coli growth on coating (E. coli; alkyd resin paint, 0.003 weight % Ag in coating) | E. coli growth on coating (E. coli; alkyd resin paint, 0.006 weight % Ag in coating) | E. coli growth on coating (E. coli; alkyd resin paint, 0.012 weight % Ag in coating) | E. coli growth on coating (E. coli; commercial 2K epoxy paint, 0.0012 weight % Ag in coating) | E. coli growth on coating (E. coli; commercial 2K epoxy paint, 0.003 weight % Ag in coating) | E. coli growth on coating (E. coli; commercial 2K epoxy paint, 0.006 weight % Ag in coating) | E. coli growth on coating (E. coli; commercial 2K epoxy paint, 0.012 weight % Ag in coating) | E. coli growth on coating (E. coli; commercial solvent borne acrylate paint, 0.0012 weight % Ag in coating) | E. coli growth on coating (E. coli; commercial solvent borne acrylate paint, 0.003 weight % Ag in coating) | E. coli growth on coating (E. coli; commercial solvent borne acrylate paint, 0.006 weight % Ag in coating) | E. coli growth on coating (E. coli; commercial solvent borne acrylate paint, 0.012 weight % Ag in coating) | E. coli growth on coating (E. coli; laboratory solvent borne acrylate paint, 0.0012 weight % Ag in coating) | E. coli growth on coating (E. coli; laboratory solvent borne acrylate paint, 0.003 weight % Ag in coating) | E. coli growth on coating (E. coli; laboratory solvent borne acrylate paint, 0.006 weight % Ag in coating) | E. coli growth on coating (E. coli; laboratory solvent borne acrylate paint, 0.012 weight % Ag in coating)
0.03 % w/w: Silver level giving complete inhibition of growth (E. coli; commercial 2K epoxy paint)
0.03%: Silver level with partial inhibition (E. coli; laboratory solvent based acrylic paint)
